Measured values reported in patent US20100267653A1, “USE OF COUMARIN DERIVATIVES IN ANTIFUNGAL THERAPY” (priority 2006, published 2010).
Converted amounts (≈) assume the structure as drawn.

Legend:
[1] = Solubility of coumarins in RPMI 1640 media and DMSO; format: physicochemical; conditions: for solubility: aqueous buffer, kinetic from dmso stock, pH = 7.0, in presence of the DMSO concentration of the same table line
Method: The solubility of the aglycones was compared to the respective glycoside in RPMI 1640 media and in DMSO.
(§1) Solubilisation of other compounds required the presence of DMSO. Esculetin, daphnetin, 4-(trifluoromethyl) coumarin, 4-(trifluoromethyl)-coumarin-7-0-glucose and cichoriin were dissolved in DMSO at 1000× final test concentration; when this solution was diluted to the concentration used in the experiments using 2× strength RPMI 1640 medium, the final concentration of DMSO was […] which alone had no effect on the fungi when tested in several experiments performed. Fraxetin required a final concentration of 0.2% DMSO, but this too had no effect on the growth of the fungi when tested in separate experiments.

[2] = test system: Trichophyton interdigitale NCPF335; assay: Antifungal activity, growth in RPMI 1640 microtitre plates (OD 530 nm); format: cell-based; conditions: Trichophyton interdigitale; T. interdigitale NCPF335, 30° C.
Method: (§2) Esculin, esculetin and a range of other coumarins and their glycosides were tested for their antifungal activity against Trichophyton rubrum, Trichophyton interdigitale and other fungi isolated from nails and skin.
(§3) Suspensions of fungal conidia and hyphal fragments for use as experimental inocula were prepared by adding 3 ml of demineralised water or 0.15% (w/v) NaCl solution to a slope culture which had been incubated at 30° C. for 7 to 10 days and probing the surface of the culture with a sterile plastic transfer pipette. […] The resulting suspension was filtered through a double layer of sterile surgical gauze; if necessary a further volume of up to 3 ml of water or 0.15% (w/v) NaCl was used to wash through any spores or small hyphal fragments held on the gauze. 100 μl of this suspension, adjusted to an optical density between 0.14 and 0.16 at 530 nm (corresponding to between 0.5 and 1.5×10^6 propagules/ml) was added to the wells in sterile 96-well microtitre plates to which 100 μl of 2× strength RPMI 1640 media (a chemically-defined nutrient medium widely used in tissue culture and antimicrobial resistance testing) had been added. Inocula prepared in this way were used in all of the experiments; additionally, for some experiments with esculin shown in FIG. 4, the results obtained with standard inocula prepared as described above (labelled “young inoculum” in FIG. 4), were compared with the results obtained in similar tests using inocula which had been cultured for up to 9 weeks (labelled “old inoculum” in FIG. 4). As appropriate, coumarins were pre-dissolved in 2× strength RPMI 1640 medium before addition to the plate. Experiments with the yeasts Candida albicans and Candida krusei were set up in the same way, but in these cases, filtration of the cell suspensions was not necessary.
as §1
(§4) A series of dilutions of the coumarin solutions was prepared on the plates by mixing known volumes of the coumarin stock solutions in the wells with fresh volumes of 2×RPMI 1640 medium. Each concentration of coumarin was studied in triplicate wells. For observations on Trichophyton rubrum NCPF118 and Trichophyton interdigitale NCPF335, obtained from the National Collection of Pathogenic Fungi (Bristol), the plates were incubated in a Bio-Tek Powerwave XS scanning plate reader at 30° C., and fungal growth within the plates was measured at intervals of 2 h for up to 72 h or 96 h as specified in the text by recording the absorbance (optical density) of the wells at 530 nm. Observations on Candida albicans and Candida krusei were made in the same way, but the incubation temperature was 37° C. and the incubation time was 48 h. For observations with clinical fungal isolates obtained from the collection of M. Monod (Lausanne, Switzerland), the procedure was as described above except that in response to the relatively slow growth of these isolates, incubations were performed in a static incubator at 30° C. and the plates were read manually in a Bio-Tek Powerwave XS scanning plate reader at intervals of 24 h for up to 168 h, being returned to the incubator after each reading. Malassezia furfur grows poorly in the system described above, so for this organism, a standard inoculum of M. furfur was mixed with an equal volume of a solution of esculetin and the mixture was plated onto Petri dishes containing Sabouraud's agar medium. […]

[3] = test system: Trichophyton rubrum NCPF118; assay: as above; format: cell-based; conditions: Trichophyton rubrum; T. rubrum NCPF118, 30° C.; read-out: MIC
Method: as §2, §3, §1, §4

[4] = DMSO present for the stated solubility in RPMI 1640

Structure (SMILES)	DMSO Concentration ([1]; pH 7) [% v/v]	DMSO Concentration [1, 4] [% v/v]	solubility [1] [µM]	MIC [2] [µM]	MIC [3] [µM]
O=c1cc(C(F)(F)F)c2ccc(OC3O[C@H](CO)[C@@H](O)[C@H](O)[C@H]3O)cc2o1 (stereo partly drawn) [4-(trifluoromethyl)coumarin-7-glucoside]	0	–	–	–	–
O=c1ccc2ccc(O)c(O)c2o1 [Daphnetin, 7,8-dihydroxycoumarin]	–	0.1	5000	250 (≈ 44.5 µg/mL)	500 (≈ 89.1 µg/mL)
COc1cc2ccc(=O)oc2c(O)c1O [Fraxetin, 7,8 dihydroxy-6-methoxycoumarin]	–	0.4	5000	500 (≈ 104 µg/mL)	250 (≈ 52 µg/mL)
